The numbers were not newly measured in patent US6555583B2, “Therapies for treating pulmonary diseases” (SmithKline Beecham Corporation, priority 1998, dated 2003), which cites them from elsewhere.

The conditions of the data set: rolipram developed as an antidepressant.

Each structure is given as a SMILES string.

With `COc1ccc(C2CNC(=O)C2)cc1OC1CCCC1` (stereo not shown) [rolipram], the “side effects in clinical studies” value is “psychotropic activity and produces gastrointestinal effects”.
